Laboratory results published in PubChem BioAssay AID2305 (GlaxoSmithKline (GSK), 2010).

Test system: P. falciparum 3D7 growth, pLDH absorbance
Assay: P. falciparum 3D7 growth inhibition, dose response, strain 3D7 (AID 2305)

Structure (SMILES) | IC50
O=c1[nH]c(NCCCNCc2cc3c(Cl)cc(Cl)cc3[nH]2)nc2ccsc12 | 1.12 µM
Cc1ccc(F)c(OCC2CCN(c3ccc(C(=O)NC4CC4)cn3)CC2)c1 | 0.73 µM
Cc1cc(C(=O)CN2C(=O)NC3(CCOc4ccccc43)C2=O)c(C)n1Cc1ccco1 (stereo not drawn) | 0.61 µM
Cc1ccc2nc(-c3cc(-c4ccc(CO)cc4)cnc3N)[nH]c2c1 | 0.86 µM
O=C(Nc1cccc(CN2CCN(C(=O)c3cccc(F)c3)CC2)c1)c1cccs1 | 0.37 µM
Oc1cc(Nc2ccnc3cc(-c4cccc(CN5CCOCC5)c4)ccc23)c(F)cc1Cl | 0.21 µM
CC[C@H](C)CNC(=O)c1cncc(-c2cccc(CN3CCC(N4CCCC4)CC3)c2)c1 | 1.17 µM
Nc1ncc(-c2ccc(NC(=O)Nc3cc(C(F)(F)F)ccc3F)cc2)c(N)n1 | 0.72 µM
N#Cc1ccc(N2CCN(Cc3ccc(-c4ccc(-c5nc6ccccc6[nH]5)s4)cc3)CC2)nc1 | 1.08 µM
Cc1nc(-c2ccc(-c3ccc(C(=O)Nc4ccc(I)c(OCCN5CCCC5)c4)cc3)c(C)c2)no1 | 0.96 µM
CCCCCCN1CCC(NCc2ccc(Cl)cc2)CC1 | 0.85 µM
c1cc(-c2ccc(CNC3CC3)cc2)cc(-c2nc3ccccc3[nH]2)c1 | 1.66 µM
Cc1cccc2[nH]c(-c3cccc(-c4ccc(NC(=O)c5cccc(C(N)=O)c5)cc4)c3)nc12 | 0.41 µM
CN(C)CCOc1ccc(-n2c(-c3nonc3N)nc3cncc(-c4ccc(F)cc4)c32)cc1 | 0.87 µM
CO/C(=C\C=C\c1cc2cc(Cl)c(Cl)cc2[nH]1)C(=O)Nc1ccc(NCCN(C)C)nc1 | 0.77 µM
N#Cc1ccc(NC(=NC2Cc3ccccc3C2)Nc2cccc(Cl)c2Cl)c(O)c1 | 0.83 µM
Nc1nccc2ccc(-c3ccsc3)cc12 | 0.33 µM
O=C(c1cc(-c2ccccc2O)on1)N1CCN(C(c2ccccc2)c2ccccc2)CC1 | 0.34 µM
COc1ccc(CNCc2ccc(-c3ccc(CNCCc4ccccc4)cn3)cc2)cn1 | 1.01 µM
Cc1noc(C)c1-c1cccc(CNCc2cccc(-c3ccc(-c4nc5c(C)cccc5[nH]4)cc3)c2)c1 | 0.19 µM
C=C[C@H]1CN(CCCCCCC)CC[C@H]1CC(=O)Nc1cnnc2ccc(OC)cc12 | 0.53 µM
CCn1ccc2c(N3CCCS3(=O)=O)cc(C(=O)N[C@@H](Cc3ccccc3)[C@H](O)CNC(C)(C)CCCC(C)C)cc21 | 0.49 µM
CN(C(=O)Nc1ccc(F)cc1)C1CCN(CCCCCNC(=O)/C=C/c2ccc(Cl)c(Cl)c2)CC1 | 0.89 µM
CCc1ccc(CN2CCC(NC(=O)c3cc(-c4ccc(N(C)C)cc4)cs3)C2)cc1 (stereo not drawn) | 1.44 µM

Structure (SMILES) | IC50
Cn1c(=N)n(CC(=O)N2CCc3ccc(Cl)cc3C2Cc2ccc(Cl)c(Cl)c2)c2ccccc21 (stereo not drawn) | 0.87 µM
CN(C)c1ccc(C=C2SC(=Nc3ccccc3)N(c3ccccc3)C2=O)cc1[N+](=O)[O-] | 0.78 µM
Cc1cccc2[nH]c(-c3ccc(-c4ccc(NC(=O)NCc5ccccc5)cc4)s3)nc12 | 0.77 µM
O=C(C=Cc1ccc(Cl)c(Cl)c1)NCCCCCN1CCC(CCNS(=O)(=O)c2ccc(F)cc2)CC1 | 1.09 µM
CC(=O)Nc1cccc(C(=O)Nc2ccc(-c3cccc(-c4nc5ccc(C(F)(F)F)cc5[nH]4)c3)cc2)c1 | 0.15 µM
CCN(c1ccc(F)cc1)S(=O)(=O)c1cc(Br)cc2c1N(C(=O)C1CC1)CC2 | 0.94 µM
Cn1cc(C(=O)Nc2cccc(-c3cccc(-c4nc5ccc(F)cc5[nH]4)c3)c2)n(C)c1=O | 0.39 µM
Fc1ccc2nc(-c3ccc(-c4ccc(CNCCc5ccncc5)cc4)s3)[nH]c2c1 | 0.14 µM
O=C(NCc1cccs1)[C@H](Cc1ccccc1)Nc1ccnc(NCCc2ccc(F)cc2)n1 | 1.45 µM
O=C(Nc1cccc(OC2CCN(Cc3ccccc3)CC2)c1)Nc1cccc([N+](=O)[O-])c1 | 0.78 µM
COc1ccc(NC(=O)c2ccc(-c3cc(NC(=O)c4ccnc(N5CCCC5)c4)ccc3C)s2)cc1N1CCN(C)CC1 | 0.25 µM
OCCN1CCN(Cc2ccc(-c3ccc(-c4nc5ccc(F)cc5[nH]4)cc3)cc2)CC1 | 0.57 µM
CN(C)CCNC(=O)NC1CN(c2ncnc3cc(-c4ccccc4)sc23)C1 | 0.58 µM
Cc1cc(Nc2nc(NCc3cccnc3)nc3ccccc23)n[nH]1 | 0.85 µM
Cc1nc(-c2ccc(-c3ccc(C(=O)Nc4ccc(Cl)c(N5CCN(C)CC5)c4)cc3)c(C)c2)no1 | 0.74 µM
Cc1ccc(C)c(S(=O)(=O)Nc2ccc(Br)cc2C(=O)Nc2cccc(C(F)(F)F)c2)c1 | 1.21 µM
CCC(C)NS(=O)(=O)c1ccc2nc(Nc3ccc(C)c(Cl)c3)n(C3CCCCC3)c2c1 (stereo not drawn) | 0.51 µM
O=C(NCCCCN1CCC(c2ccc3ccccc3c2)CC1)c1ccc(NC(=O)c2ccc(Cl)cc2)cc1 | 0.23 µM
CCc1ccc(CN(CCCOc2cccc(CC(=O)NCc3cnc[nH]3)c2)Cc2ccc(-n3ccnc3)cc2)cc1 | 0.98 µM
CC(NC(=O)c1ccc(O)c(-c2ccc(Cl)c(Cl)c2)c1)C(=O)NCCN1CCOCC1 (stereo not drawn) | 0.96 µM
N#Cc1cccc(NC(=O)Nc2ccc(-c3csc(-c4nc5ccccc5[nH]4)c3)cc2)c1 | 0.15 µM
Cc1nc2ccccc2c(=O)n1NCc1ccc(Cl)c(Cl)c1 | 0.15 µM
CO[C@@H]1C[C@@H](C(=O)Nc2ccccc2)N(c2ccc(C#N)c3ccccc23)C1 | 0.91 µM
O=C1Nc2cccc3c2C1(CCCCN1CCC(c2c[nH]c4cc(C(F)(F)F)ccc24)CC1)CCC3 (stereo not drawn) | 0.72 µM
